Results as given in patent US7244431B2, “Allergy vaccines and their preparation” (priority 2000, dated 2007).

What was measured:
[1] = test system: birch pollen allergic patients; assay: Skin prick testing of allergic patients; format: in vivo, human; details: 100 μg/ml
Experimental: SPTs were performed on the individuals forearms as described ([…]. et al. (1997) J. Clin Invest. 99, 1673-168; Dreborg S: (1989) J. Am. Acad. DerMatol. 21, 820-821). […] In addition standardized skin prick solutions (birch pollen extract and histamine) (Allergopharma, Reinbek, Germany) were tested. Reactions were recorded 20 minutes after SPT by photography and by transferring the ballpoint pen-surrounded wheal area with a scotch tape to paper.

[2] = test system: IgE antibodies in sera from birch pollen allergic patients; assay: ELISA detection of peptide- and rBet v 1-specific IgE antibodies; format: binding, human
Procedure, shortened: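 IgE binding detected by 1:1000 alkaline-phosphatase mouse monoclonal anti-human IgE after overnight 4 °C incubation with 1:3-diluted sera. Sera came from 60 birch pollen allergic patients (25 male, 35 female, age 19–60) and a non-atopic control.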

MGVFNYETETTSVIPAARLFKAFIC [Peptide P1, Bet v 1-derived synthetic peptide, position aa 1-24, one cysteine added]
mean wheal diameter ([1]; individual 1): 0 mm
mean wheal diameter ([1]; individual 2): 0 mm
mean wheal diameter ([1]; individual 3): 0 mm
mean wheal diameter ([1]; individual 4): 0 mm
mean wheal diameter ([1]; individual 5): 0 mm
mean wheal diameter ([1]; individual 6 (allergic, without birch pollen allergy)): 0 mm
IgE (OD) ([2]; serum of NHS, non-allergic control individual): — (Dashes indicate reactivities below the cut-off level (OD=0.050))
IgE (OD) ([2]; serum of patient 1): — (Dashes indicate reactivities below the cut-off level (OD=0.050))
IgE (OD) ([2]; serum of patient 2): — (Dashes indicate reactivities below the cut-off level (OD=0.050))
IgE (OD) ([2]; serum of patient 3): — (Dashes indicate reactivities below the cut-off level (OD=0.050))
IgE (OD) ([2]; serum of patient 4): — (Dashes indicate reactivities below the cut-off level (OD=0.050))
IgE (OD) ([2]; serum of patient 5): — (Dashes indicate reactivities below the cut-off level (OD=0.050))
IgE (OD) ([2]; serum of patient 6): — (Dashes indicate reactivities below the cut-off level (OD=0.050))
IgE (OD) ([2]; serum of patient 7): — (Dashes indicate reactivities below the cut-off level (OD=0.050))
IgE (OD) ([2]; serum of patient 8): — (Dashes indicate reactivities below the cut-off level (OD=0.050))
IgE (OD) ([2]; serum of patient 9): — (Dashes indicate reactivities below the cut-off level (OD=0.050))
IgE (OD) ([2]; serum of patient 10): — (Dashes indicate reactivities below the cut-off level (OD=0.050))
IgE (OD) ([2]; serum of patient 11): — (Dashes indicate reactivities below the cut-off level (OD=0.050))
IgE (OD) ([2]; serum of patient 12): — (Dashes indicate reactivities below the cut-off level (OD=0.050))
IgE (OD) ([2]; serum of patient 13): — (Dashes indicate reactivities below the cut-off level (OD=0.050))
IgE (OD) ([2]; serum of patient 14): — (Dashes indicate reactivities below the cut-off level (OD=0.050))
IgE (OD) ([2]; serum of patient 15): — (Dashes indicate reactivities below the cut-off level (OD=0.050))
IgE (OD) ([2]; serum of patient 16): — (Dashes indicate reactivities below the cut-off level (OD=0.050))
IgE (OD) ([2]; serum of patient 17): — (Dashes indicate reactivities below the cut-off level (OD=0.050))
IgE (OD) ([2]; serum of patient 18): — (Dashes indicate reactivities below the cut-off level (OD=0.050))
IgE (OD) ([2]; serum of patient 19): — (Dashes indicate reactivities below the cut-off level (OD=0.050))
IgE (OD) ([2]; serum of patient 20): — (Dashes indicate reactivities below the cut-off level (OD=0.050))
IgE (OD) ([2]; serum of patient 21): — (Dashes indicate reactivities below the cut-off level (OD=0.050))
IgE (OD) ([2]; serum of patient 22): — (Dashes indicate reactivities below the cut-off level (OD=0.050))
IgE (OD) ([2]; serum of patient 23): — (Dashes indicate reactivities below the cut-off level (OD=0.050))
IgE (OD) ([2]; serum of patient 24): — (Dashes indicate reactivities below the cut-off level (OD=0.050))
IgE (OD) ([2]; serum of patient 25): — (Dashes indicate reactivities below the cut-off level (OD=0.050))
IgE (OD) ([2]; serum of patient 26): — (Dashes indicate reactivities below the cut-off level (OD=0.050))
IgE (OD) ([2]; serum of patient 27): — (Dashes indicate reactivities below the cut-off level (OD=0.050))
IgE (OD) ([2]; serum of patient 28): — (Dashes indicate reactivities below the cut-off level (OD=0.050))
IgE (OD) ([2]; serum of patient 29): — (Dashes indicate reactivities below the cut-off level (OD=0.050))
IgE (OD) ([2]; serum of patient 30): — (Dashes indicate reactivities below the cut-off level (OD=0.050))
IgE (OD) ([2]; serum of patient 31): — (Dashes indicate reactivities below the cut-off level (OD=0.050))
IgE (OD) ([2]; serum of patient 32): — (Dashes indicate reactivities below the cut-off level (OD=0.050))
IgE (OD) ([2]; serum of patient 33): — (Dashes indicate reactivities below the cut-off level (OD=0.050))
IgE (OD) ([2]; serum of patient 34): — (Dashes indicate reactivities below the cut-off level (OD=0.050))
IgE (OD) ([2]; serum of patient 35): — (Dashes indicate reactivities below the cut-off level (OD=0.050))
IgE (OD) ([2]; serum of patient 36): — (Dashes indicate reactivities below the cut-off level (OD=0.050))
IgE (OD) ([2]; serum of patient 37): — (Dashes indicate reactivities below the cut-off level (OD=0.050))
IgE (OD) ([2]; serum of patient 38): — (Dashes indicate reactivities below the cut-off level (OD=0.050))
IgE (OD) ([2]; serum of patient 39): — (Dashes indicate reactivities below the cut-off level (OD=0.050))
IgE (OD) ([2]; serum of patient 40): — (Dashes indicate reactivities below the cut-off level (OD=0.050))
IgE (OD) ([2]; serum of patient 41): — (Dashes indicate reactivities below the cut-off level (OD=0.050))
IgE (OD) ([2]; serum of patient 42): — (Dashes indicate reactivities below the cut-off level (OD=0.050))
IgE (OD) ([2]; serum of patient 43): — (Dashes indicate reactivities below the cut-off level (OD=0.050))
IgE (OD) ([2]; serum of patient 44): — (Dashes indicate reactivities below the cut-off level (OD=0.050))
IgE (OD) ([2]; serum of patient 45): — (Dashes indicate reactivities below the cut-off level (OD=0.050))
IgE (OD) ([2]; serum of patient 46): — (Dashes indicate reactivities below the cut-off level (OD=0.050))
IgE (OD) ([2]; serum of patient 47): — (Dashes indicate reactivities below the cut-off level (OD=0.050))
IgE (OD) ([2]; serum of patient 48): — (Dashes indicate reactivities below the cut-off level (OD=0.050))
IgE (OD) ([2]; serum of patient 49): — (Dashes indicate reactivities below the cut-off level (OD=0.050))
IgE (OD) ([2]; serum of patient 50): — (Dashes indicate reactivities below the cut-off level (OD=0.050))
IgE (OD) ([2]; serum of patient 51): — (Dashes indicate reactivities below the cut-off level (OD=0.050))
IgE (OD) ([2]; serum of patient 52): — (Dashes indicate reactivities below the cut-off level (OD=0.050))
IgE (OD) ([2]; serum of patient 53): — (Dashes indicate reactivities below the cut-off level (OD=0.050))
IgE (OD) ([2]; serum of patient 54): — (Dashes indicate reactivities below the cut-off level (OD=0.050))
IgE (OD) ([2]; serum of patient 55): — (Dashes indicate reactivities below the cut-off level (OD=0.050))
IgE (OD) ([2]; serum of patient 56): — (Dashes indicate reactivities below the cut-off level (OD=0.050))
IgE (OD) ([2]; serum of patient 57): — (Dashes indicate reactivities below the cut-off level (OD=0.050))
IgE (OD) ([2]; serum of patient 58): — (Dashes indicate reactivities below the cut-off level (OD=0.050))
IgE (OD) ([2]; serum of patient 59): — (Dashes indicate reactivities below the cut-off level (OD=0.050))
IgE (OD) ([2]; serum of patient 60): — (Dashes indicate reactivities below the cut-off level (OD=0.050))
